# Results taken from patent US10745382B2 (BRISTOL-MYERS SQUIBB COMPANY, priority 2015, dated 2020).
# Read-outs that look alike come from different tables or passages of the source.
# Molecular target: T1, PD-1/PD-L1 (Homo sapiens, UniProt Q9NZQ7)
# T1 construct: made in house; host or cells: HEK293T
# Test: PD-1/PD-L1 Homogenous Time-Resolved Fluorescence (HTRF) binding assay
# Conditions: PD-L1-His 10 nM, PD-1-Ig 20 nM, read-out: Range or IC50
# Outline: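 Detection by europium cryptate anti-Ig plus APC anti-His (1 nM and 20 nM final) with HTRF signal. Buffer was dPBS, 0.1% BSA, 0.05% Tween-20.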
# T1 sequence (Q9NZQ7 with tags, fused parts or gaps): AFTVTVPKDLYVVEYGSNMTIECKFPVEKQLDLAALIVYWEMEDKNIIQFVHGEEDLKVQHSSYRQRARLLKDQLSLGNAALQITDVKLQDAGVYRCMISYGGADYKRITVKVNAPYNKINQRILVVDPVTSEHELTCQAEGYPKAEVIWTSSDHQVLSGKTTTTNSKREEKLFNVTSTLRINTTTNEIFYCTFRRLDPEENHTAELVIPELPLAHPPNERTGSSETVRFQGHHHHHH
Structure (SMILES),IC50 (value given as range class),IC50 (numeric IC50)
"Cc1c(COc2cc(OCc3cncc(S(C)(=O)=O)c3)c(CN3CCCC[C@H]3C(=O)O)cc2Cl)cccc1-c1cccc(OCCCN2CC[C@@H](C(=O)O)C2)c1C [Example 1084, (S)-1-(4-((3′-(3-((R)-3-carboxypyrrolidin-1-yl)propoxy)-2,2′-dimethyl-[1,1′-biphenyl]-3-yl)methoxy)-5-chloro-2-((5-(methylsulfonyl)pyridin-3-yl)methoxy)benzyl)piperidine-2-carboxylic Acid]",0.00021 to 0.01 µM,–
"Cc1c(COc2cc(OCc3cncc(C#N)c3)c(CN3CCCC[C@H]3C(=O)O)cc2Cl)cccc1-c1cccc(OCCCN2CCC(CO)(C(=O)O)CC2)c1C [Example 1110, (S)-1-(4-((3′-(3-(4-carboxy-4-(hydroxymethyl)piperidin-1-yl)propoxy)-2,2′-dimethyl-[1,1′-biphenyl]-3-yl)methoxy)-5-chloro-2-((5-cyanopyridin-3-yl)methoxy)benzyl)piperidine-2-carboxylic Acid]",0.01 to 0.1 µM,–
"CC(CO)(CO)NCc1cc(Cl)c(OCc2cccc(-c3cccc(OCCCN4CC[C@@H](O)C4)c3Cl)c2Cl)cc1OCCC(F)(F)F [Example 2107, (R)-2-((5-chloro-4-((2,2′-dichloro-3′-(3-(3-hydroxypyrrolidin-1-yl)propoxy)-[1,1′-biphenyl]-3-yl)methoxy)-2-(3,3,3-trifluoropropoxy)benzyl)amino)-2-methylpropane-1,3-diol]",0.00021 to 0.01 µM,–
"Cc1c(COc2cc(OCc3cc(Cl)cc(Cl)c3)c(CNC(CO)(CO)CO)cc2Cl)cccc1-c1cccc(OCCCN2CC[C@@H](O)C2)c1C [Example 4502, (R)-2-((5-chloro-2-((3,5-dichlorobenzyl)oxy)-4-((3′-(3-(3-hydroxypyrrolidin-1-yl)propoxy)-2,2′-dimethyl-[1,1′-biphenyl]-3-yl)methoxy)benzyl)amino)-2-(hydroxymethyl)propane-1,3-diol]",0.00021 to 0.01 µM,–
"CNC(=O)c1cccc(-c2cccc(COc3cc(OCc4cc(F)cc(F)c4)c(C=O)cc3Cl)c2C)c1C [Example 4028, 3′-((2-chloro-5-((3,5-difluorobenzyl)oxy)-4-formylphenoxy)methyl)-N,2,2′-trimethyl-[1,1′-biphenyl]-3-carboxamide]",0.1 to 2 µM,–
"Cc1c(COc2cc(OCc3cncc(C#N)c3)c(CN3CCCC[C@H]3C(=O)O)cc2Cl)cccc1-c1cccc(OCCCN2C[C@@H](O)C[C@H]2C(=O)O)c1C [Example 2240, (2S)-1-(4-((3′-(3-((2S,4S)-2-carboxy-4-hydroxypyrrolidin-1-yl)propoxy)-2,2′-dimethylbiphenyl-3-yl)methoxy)-5-chloro-2-((5-cyanopyridin-3-yl)methoxy)benzyl)piperidine-2-carboxylic Acid]",0.00021 to 0.01 µM,–
"Cc1c(COc2cc(OCc3cncc(C#N)c3)c(CN[C@@H](CO)C(=O)O)cc2Cl)cccc1-c1cc(OCCCN2CC[C@@H](O)C2)cc(OCCCN2CC[C@@H](O)C2)c1 [Example 3065, (S)-2-((4-((3′,5′-bis(3-((R)-3-hydroxypyrrolidin-1-yl)propoxy)-2-methyl-[1,1′-biphenyl]-3-yl)methoxy)-5-chloro-2-((5-cyanopyridin-3-yl)methoxy)benzyl)amino)-3-hydroxypropanoic Acid]",0.01 to 0.1 µM,–
"Cc1c(COc2cc(OCc3cncc(C(N)=O)c3)c(CN[C@H](CO)C(=O)O)cc2Cl)cccc1-c1cccc(OCCCN2CCC(O)(C(=O)O)CC2)c1 [Example 1032, (R)-1-(3-((3′-((5-((5-carbamoylpyridin-3-yl)methoxy)-4-(((1-carboxy-2-hydroxyethyl)amino)methyl)-2-chlorophenoxy)methyl)-2′-methyl-[1,1′-biphenyl]-3-yl)oxy)propyl)-4-hydroxypiperidine-4-carboxylic Acid]",0.00021 to 0.01 µM,–
"COC(=O)C1(O)CCN(CCCOc2cccc(-c3cccc(COc4cc(OCc5cncc(C#N)c5)c(CN[C@H](CO)C(=O)O)cc4Cl)c3C)c2)CC1 [Example 1028, (R)-2-((5-chloro-2-((5-cyanopyridin-3-yl)methoxy)-4-((3′-(3-(4-hydroxy-4-(methoxycarbonyl)piperidin-1-yl)propoxy)-2-methyl-[1,1′-biphenyl]-3-yl)methoxy)benzyl)amino)-3-hydroxypropanoic Acid]",0.00021 to 0.01 µM,–

# Further lines, results first:
IC50 (value given as range class),IC50 (numeric IC50),Structure (SMILES)
0.00021 to 0.01 µM,–,"CC(=O)N[C@@H]1CCN(CCCOc2cccc(-c3cccc(COc4cc(OCc5cncc(C#N)c5)c(CNC(C)(CO)CO)cc4Cl)c3C)c2C)C1 [Example 2290, (R)—N-(1-(3-((3′-((2-chloro-5-((5-cyanopyridin-3-yl)methoxy)-4-(((1,3-dihydroxy-2-methylpropan-2-yl)amino)methyl)phenoxy)methyl)-2,2′-dimethyl-[1,1′-biphenyl]-3-yl)oxy)propyl)pyrrolidin-3-yl)acetamide]"
0.00021 to 0.01 µM,–,"Cc1c(COc2cc(OCc3cncc(C#N)c3)c(CNC(C)(CO)CO)cc2Cl)cccc1-c1cccc(OCCCN2CCC[C@@H](CO)C2)c1C [Example 2289, (R)-5-((4-chloro-2-(((1,3-dihydroxy-2-methylpropan-2-yl)amino)methyl)-5-((3′-(3-(3-(hydroxymethyl)piperidin-1-yl)propoxy)-2,2′-dimethyl-[1,1′-biphenyl]-3-yl)methoxy)phenoxy)methyl)nicotinonitrile]"
0.00021 to 0.01 µM,–,"Cc1cc(OCc2cccc(-c3cccc(OCCCN4CC[C@@H](O)C4)c3C)c2C)cc(OCc2cncc(C#N)c2)c1CN[C@@](C)(CO)C(=O)O [Example 4091, (S)-2-((2-((5-cyanopyridin-3-yl)methoxy)-4-((3′-(3-((R)-3-hydroxypyrrolidin-1-yl)propoxy)-2,2′-dimethyl-[1,1′-biphenyl]-3-yl)methoxy)-6-methylbenzyl)amino)-3-hydroxy-2-methylpropanoic Acid]"
0.00021 to 0.01 µM,–,"Cc1c(COc2cc(OCc3cncc(C#N)c3)c(CN3CCOC[C@H]3CO)cc2Cl)cccc1-c1cccc(OCCCN2CC[C@@H](O)C2)c1Cl [Example 2115, 5-((4-chloro-5-((2′-chloro-3′-(3-((R)-3-hydroxypyrrolidin-1-yl)propoxy)-2-methyl-[1,1′-biphenyl]-3-yl)methoxy)-2-(((R)-3-(hydroxymethyl)morpholino)methyl)phenoxy)methyl)nicotinonitrile]"
0.00021 to 0.01 µM,–,"Cc1c(COc2cc(OCc3cncc(C#N)c3)c(CN[C@@](C)(CO)C(=O)O)cc2Cl)cccc1-c1cccc(OCCCNC[C@H](O)CO)c1Cl [Example 2006, (S)-2-((5-chloro-4-((2′-chloro-3′-(3-(((S)-2,3-dihydroxypropyl)amino)propoxy)-2-methyl-[1,1′-biphenyl]-3-yl)methoxy)-2-((5-cyanopyridin-3-yl)methoxy)benzyl)amino)-3-hydroxy-2-methylpropanoic Acid]"
–,0.0005 µM,"Cc1c(COc2cc(OCc3cncc(C#N)c3)c(CN(C)C(CO)(CO)CO)cc2Cl)cccc1-c1cccc(OCCCN2CCC(F)(F)C2)c1C [Example 4121, 5-((4-chloro-5-((3′-(3-(3,3-difluoropyrrolidin-1-yl)propoxy)-2,2′-dimethyl-[1,1′-biphenyl]-3-yl)methoxy)-2-(((1,3-dihydroxy-2-(hydroxymethyl)propan-2-yl)(methyl)amino)methyl)phenoxy)methyl)nicotinonitrile]"
0.00021 to 0.01 µM,–,"Cc1c(COc2cc(OCc3cncc(C#N)c3)c(CN[C@@](C)(CO)C(=O)O)cc2Cl)cccc1-c1cccc(OCCCN2CCC[C@H](O)C2)c1C [Example 2262, (2S)-2-(5-chloro-2-((5-cyanopyridin-3-yl)methoxy)-4-((3′-(3-((S)-3-hydroxypiperidin-1-yl)propoxy)-2,2′-dimethylbiphenyl-3-yl)methoxy)benzylamino)-3-hydroxy-2-methylpropanoic Acid]"
0.00021 to 0.01 µM,–,"Cc1c(COc2cc(OCc3cncc(C#N)c3)c(CN[C@](C)(CO)C(=O)O)cc2Cl)cccc1-c1cccc(OCCCN2CCCCC2)c1Cl [Example 2016, (R)-2-((5-chloro-4-((2′-chloro-2-methyl-3′-(3-(piperidin-1-yl)propoxy)-[1,1′-biphenyl]-3-yl)methoxy)-2-((5-cyanopyridin-3-yl)methoxy)benzyl)amino)-3-hydroxy-2-methylpropanoic Acid]"
0.00021 to 0.01 µM,–,"Cc1c(COc2cc(OCc3cncc(C#N)c3)c(CNC(CO)CO)cc2Cl)cccc1-c1cccc(OCCCNC[C@H](O)CO)c1Cl [Example 2036, (S)-5-((4-chloro-5-((2′-chloro-3′-(3-((2,3-dihydroxypropyl)amino)propoxy)-2-methyl-[1,1′-biphenyl]-3-yl)methoxy)-2-(((1,3-dihydroxypropan-2-yl)amino)methyl)phenoxy)methyl)nicotinonitrile]"
0.00021 to 0.01 µM,–,"Cc1c(COc2cc(OCc3cncc(C#N)c3)c(CN[C@](C)(CO)C(=O)O)cc2Cl)cccc1-c1cccc(OCCCN2CCC(CO)(C(=O)O)CC2)c1Cl [Example 1115, (R)-1-(3-((3′-((4-(((2-carboxy-1-hydroxypropan-2-yl)amino)methyl)-2-chloro-5-((5-cyanopyridin-3-yl)methoxy)phenoxy)methyl)-2-chloro-2′-methyl-[1,1′-biphenyl]-3-yl)oxy)propyl)-4-(hydroxymethyl)piperidine-4-carboxylic Acid]"
0.00021 to 0.01 µM,–,"CC(=O)N[C@H]1CCN(CCCOc2cccc(-c3cccc(COc4cc(OCc5cncc(C#N)c5)c(CN[C@](C)(CO)C(=O)O)cc4Cl)c3C)c2Cl)C1 [Example 2071, (R)-2-((4-((3′-(3-((S)-3-acetamidopyrrolidin-1-yl)propoxy)-2′-chloro-2-methyl-[1,1′-biphenyl]-3-yl)methoxy)-5-chloro-2-((5-cyanopyridin-3-yl)methoxy)benzyl)amino)-3-hydroxy-2-methylpropanoic Acid]"
0.01 to 0.1 µM,–,"Cc1c(COc2cc(OCc3cncc(C#N)c3)c(CN[C@@H](CO)C(=O)O)cc2Cl)cccc1-c1cccc(C(=O)N2CCOCC2)c1C [Example 4055, (5-chloro-2-((5-cyanopyridin-3-yl)methoxy)-4-((2,2′-dimethyl-3′-(morpholine-4-carbonyl)-[1,1′-biphenyl]-3-yl)methoxy)benzyl)-L-serine]"
